Measured values as given in ChEMBL document CHEMBL3351613, “Indolylarylsulfones carrying a heterocyclic tail as very potent and broad spectrum HIV-1 non-nucleoside reverse transcriptase inhibitors” (J Med Chem, 2014).
Calls of active or inactive are those of the source. The rule behind the calls is not given here.

Legend:
[1] = Stability in human plasma assessed as remaining unmodified parent compound level after 24 hrs; assay type: ADME, cell-free; settings: read-out: Stability
[2] = system: Human immunodeficiency virus 1; assay: Antiviral activity against HIV1 Clade C (DJ259) infected in human PBMC assessed as reduction in p24 antigen production; assay type: functional, organism-based; settings: Human immunodeficiency virus 1, Clade C (DJ259)
[3] = biological target: T1, Human immunodeficiency virus type 1 reverse transcriptase (Human immunodeficiency virus 1, UniProt Q72547)
[4] = system: Human immunodeficiency virus 1; assay type: functional, organism-based; settings: Human immunodeficiency virus 1, NL4-3, MT4
[5] = system: Human immunodeficiency virus 1; assay: Antiviral activity against HIV1 Clade F (BZ162) infected in human PBMC assessed as reduction in p24 antigen production; assay type: functional, organism-based; settings: Human immunodeficiency virus 1, Clade F (BZ162)
[6] = system: Human immunodeficiency virus 1; assay: Antiviral activity against HIV1 Clade G (HH8793) infected in human PBMC assessed as reduction in p24 antigen production; assay type: functional, organism-based; settings: Human immunodeficiency virus 1, Clade G (HH8793)
[7] = biological target: Human immunodeficiency virus type 1 reverse transcriptase (Human immunodeficiency virus 1, UniProt Q72547, L100I)
Description: Inhibition of wild type HIV1 reverse transcriptase L100I mutant assessed as reduction in enzyme activity

[8] = system: Human immunodeficiency virus 1; assay type: functional, organism-based; settings: Human immunodeficiency virus 1, NL4-3, MT4; remark: listed apart in the source
[9] = system: Human immunodeficiency virus 1; assay: Antiviral activity against HIV1 Clade D (UG270) infected in human PBMC assessed as reduction in p24 antigen production; assay type: functional, organism-based; settings: Human immunodeficiency virus 1, Clade D (UG270)
[10] = system: Human immunodeficiency virus 1; assay: Antiviral activity against HIV1 Clade B (BaL) infected in human PBMC assessed as reduction in p24 antigen production; assay type: functional, organism-based; settings: Human immunodeficiency virus 1, Clade B (BaL)
[11] = system: Human immunodeficiency virus 1; assay type: functional, organism-based; settings: Human immunodeficiency virus 1, NL4-3, MT4; remark: listed apart in the source
[12] = system: Human immunodeficiency virus 1; assay: Antiviral activity against HIV1 NL4-3 infected in human MT4 cells assessed as reduction in virus-induced cell death by MTT assay; assay type: functional, organism-based; settings: Human immunodeficiency virus 1, NL4-3, MT4
[13] = biological target: Human immunodeficiency virus type 1 reverse transcriptase (Human immunodeficiency virus 1, UniProt Q72547, V106A); assay: Inhibition of […] HIV1 reverse transcriptase V106A mutant assessed as reduction in enzyme activity
[14] = Permeability by PAMPA method; assay type: ADME
[15] = system: Human immunodeficiency virus 1; assay: Antiviral activity against HIV1 Clade A (UG273) infected in human PBMC assessed as reduction in p24 antigen production; assay type: functional, organism-based; settings: Human immunodeficiency virus 1, Clade A (UG273)
[16] = system: Human immunodeficiency virus 2; assay: Antiviral activity against HIV2 ROD infected in human PBMC cells assessed as reduction in p24 antigen production; assay type: functional, organism-based; settings: ISOLATE ROD
[17] = biological target: T1, Human immunodeficiency virus type 1 reverse transcriptase; remark: listed apart in the source
Description: Inhibition of wild type HIV1 reverse transcriptase assessed as reduction in enzyme activity

[18] = biological target: Human immunodeficiency virus type 1 reverse transcriptase (Human immunodeficiency virus 1, UniProt Q72547, K103N)
Description: Inhibition of wild type HIV1 reverse transcriptase K103N mutant assessed as reduction in enzyme activity

[19] = system: Human immunodeficiency virus 1; assay: Antiviral activity against HIV1 Clade A/E (ID12) infected in human PBMC assessed as reduction in p24 antigen production; assay type: functional, organism-based; settings: Human immunodeficiency virus 1, Clade A/E (ID12)
[20] = system: Plasma; assay: Stability in human plasma assessed as compound hydrolysis after 24 hrs; assay type: ADME, cell-free
[21] = Drug retention assessed as membrane retention by PAMPA method; assay type: physicochemical

Structure (SMILES): Cc1cc(C)cc(S(=O)(=O)c2c(C(=O)N[C@H](C)c3ccncc3)[nH]c3ccc(Cl)cc23)c1
- remaining at 24 h [1]: 99%
- EC50 [2]: 0.7 nM
- IC50 [3]: 2230 nM
- EC50 [4]: 2.1 nM
- EC50 [5]: 1.6 nM
- EC50 [6]: 1.7 nM
- IC50 [7]: 3 nM
- EC50 [8]: 933 nM
- EC50 [9]: 1.8 nM
- EC50 [10]: 2.1 nM
- EC50 [11]: 150 nM
- EC50 [12]: 0.2 nM
- IC50 [13]: 26 nM
- Papp [14]: 12.4 ×10⁻⁶ cm/s
- EC50 [15]: 3.4 nM
- Activity [16]: inactive
- IC50 [17]: 18 nM
- IC50 [18]: 50 nM
- EC50 [19]: 1.2 nM
- Stability [20]: Stable
- Drug uptake [21]: 0%
